Type in all cases: cell-based
In assay [1] the target is T1, AR (Homo sapiens, UniProt P10275).
T1 construct: expression of target proteins in cells; endogenous in cells
T1 sequence (P10275 1-920): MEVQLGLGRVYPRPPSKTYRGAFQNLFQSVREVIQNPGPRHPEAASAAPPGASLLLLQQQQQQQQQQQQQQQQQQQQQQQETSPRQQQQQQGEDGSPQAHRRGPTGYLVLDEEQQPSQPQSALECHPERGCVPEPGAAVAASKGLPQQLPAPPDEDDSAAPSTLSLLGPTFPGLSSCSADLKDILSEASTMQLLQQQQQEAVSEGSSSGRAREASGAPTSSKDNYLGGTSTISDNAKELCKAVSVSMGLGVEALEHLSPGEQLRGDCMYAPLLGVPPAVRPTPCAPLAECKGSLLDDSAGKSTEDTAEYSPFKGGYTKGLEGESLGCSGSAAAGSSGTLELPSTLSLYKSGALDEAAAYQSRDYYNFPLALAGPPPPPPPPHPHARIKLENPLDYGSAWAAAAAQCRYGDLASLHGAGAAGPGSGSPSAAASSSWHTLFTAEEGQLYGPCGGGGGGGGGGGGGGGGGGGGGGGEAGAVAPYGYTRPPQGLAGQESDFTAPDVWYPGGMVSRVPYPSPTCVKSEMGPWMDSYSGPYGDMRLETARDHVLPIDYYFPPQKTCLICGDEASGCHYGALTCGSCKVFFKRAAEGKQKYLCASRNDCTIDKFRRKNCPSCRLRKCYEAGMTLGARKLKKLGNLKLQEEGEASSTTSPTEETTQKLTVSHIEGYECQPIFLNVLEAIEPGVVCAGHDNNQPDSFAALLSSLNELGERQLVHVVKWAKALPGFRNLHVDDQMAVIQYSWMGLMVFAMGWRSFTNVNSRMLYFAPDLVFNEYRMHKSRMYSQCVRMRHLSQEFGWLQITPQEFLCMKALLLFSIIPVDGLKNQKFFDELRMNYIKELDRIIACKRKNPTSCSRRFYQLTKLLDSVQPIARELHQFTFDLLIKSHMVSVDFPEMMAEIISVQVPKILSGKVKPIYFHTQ
In words: Western blot degradation of AR. The note with it: LnCap Cell; 24 hours. As to the method: Conventional Western blot assay was performed to evaluate the effects of the compounds of the present disclosure on the expression of target proteins in cells.
(1) Cell Seeding and Protein Harvesting: The selected cells were processed according to the cell seeding procedure and protein harvesting procedure in Table II-2.
(2) To the collected supernatant, 5×SDS sample loading buffer was added, followed by denaturation at 95 °C for 5 minutes. The denatured samples were then separated by SDS-PAGE electrophoresis on a polyacrylamide gel. Proteins were transferred to a nitrocellulose membrane (0.45 μm NC membrane), blocked with blocking buffer at room temperature for 1 hour, and subjected to antibody incubation and development procedures according to the antibody manufacturer's instructions (Cell Signaling Technology).
Half-Maximal Degradation Concentration value (the drug concentration required for degrading proteins by 50%, abbreviated as DC50) reads method: comparing the grayscale values of Western blot bands from drug-treated samples with those from blank DMSO-treated controls, and identifying the drug concentration range at which the grayscale value is half that of the DMSO-treated control bands.
DC50 values can be calculated using ImageJ software to measure grayscale values of Western blot bands from drug-treated samples. The concentration-response curve is fitted to estimate the drug concentration corresponding to half the grayscale value.
Target protein remaining (%) refers to the percentage of target protein remaining in cells after treatment with protein degrader compounds.
Calculation method for target protein remaining (%): Use ImageJ software to measure grayscale values of Western blot bands from drug (protein degrader)-treated samples. The grayscale value of drug-treated bands is divided by that of internal control protein bands, and the resulting quotient is normalized to obtain the relative percentage of remaining target protein after protein degrader treatment.
Target protein degradation rate (%)=1−target protein remaining (%).
(In general: A western blot detects proteins with antibodies after separation by electrophoresis.)

Assay [2] has as its system Human myeloid monocytic leukemia cell line (MV-4-11). In words: Inhibition of MV-4-11 cell proliferation (CellTiter luminescent viability). The following applies: Homo sapiens, MV4-11; for inhibition at 0.01 µM: read-out: Inhibition Rate at 10 nM (%); for inhibition at 0.5 µM: read-out: Inhibition Rate at 500 nM (%). A digest of the protocol: (§1)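 Cells are seeded in 96-well plates, cultured at 37 °C, 5% CO2, and treated next day with 5-fold serial compound dilutions (stock series from 2000 μM; 0.5 μL into 100 μL medium). Viability is read by CellTiter-Meiluncell luminescence after the set exposure, and IC50 is taken from growth-inhibition curves.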

Assay [3] relates to Human lung cancer cell line (H292). In words: Inhibition of H292 cell proliferation (CellTiter luminescent viability). The following applies: NCI-H292, H292 cell; for inhibition at 0.01 µM: 10 nM, read-out: Inhibition Rate at 10 nM (%); for inhibition at 0.5 µM: 500 nM, read-out: Inhibition Rate at 500 nM (%).
The subject of assay [4] is Human breast cancer cell line (MDA-MB-231). The assay is described as follows: Inhibition of MDA-MB-231 cell proliferation (CellTiter luminescent viability). The following applies: for inhibition at 0.01 µM: read-out: Inhibition Rate at 10 nM (%); for inhibition at 0.5 µM: read-out: Inhibition Rate at 500 nM (%). How it is done: The tumor cells used herein were cultured in a cell culture medium listed in table 3 at 37 °C in an incubator with 5% CO2. Prior to experimentation, all cell lines used were correctly identified by STR profiling, and tested negative for mycoplasma contamination using a mycoplasma detection kit through routine screenings.
The IC50 values of the compounds of the present disclosure (including the compounds in Table 1, Table 2, and Examples 1-468) were determined using the CellTiter-Meiluncell Luminescent Cell Viability Assay Kit from Dalian Meilun Biotech Co., Ltd. The detailed procedure is as follows: Tumor cells were seeded in 96-well cell culture plates at the densities specified in Table 4. On the following day, the test compounds of the present disclosure were subjected to serial dilution. The dilution can be performed according to one of the following two methods: • (1) The first dilution method: The test compounds of the present disclosure (including the compounds in Table 1, Table 2, and Examples 1-468) were subjected to 5-fold serial dilutions starting from a highest concentration of 2000 μM, resulting in a total of 9 concentrations from high to low (2000, 400, 80, 16, 3.2, 0.64, 0.128, 0.0256, 0.00512 μM). Subsequently, 0.5 μL of the test compound dilution was transferred into the 96-well plate containing the cells, with each well containing 100 μL of cell culture medium. […] Into the 96-well plate, the diluted test compounds and corresponding detection reagents were added, resulting in final test compound concentrations of 500 nM and 10 nM, respectively. The experimental procedure is described below using the diluted 2 μM test compound as an example.
0.5 μL of the aforementioned diluted compound of the present disclosure (including the compounds in Table 1, Table 2, and Examples 1-468) was added to the seeded cells in 100 μL of medium, yielding a final test compound concentration of 10 nM. After the cells were treated with the compounds of the present disclosure for a specified period, the cell viability assay reagent was added to the culture medium according to the kit's instructions to determine cell viability. […] All controls were treated using the same procedure as the compounds of the present disclosure. The growth inhibition curves for the compounds of the present disclosure were plotted using Prism GraphPad software, and the IC50 values were calculated therefrom.

The subject of assay [5] is Human Multiple myeloma cell line (MM.1S). In words: Inhibition of MM.1S cell proliferation (CellTiter luminescent viability). The following applies: Homo sapiens, MM1.S, Table IG1, FAK inhibitor-based, 96 hours; for inhibition at 0.01 µM: 10 nM, read-out: Inhibition Rate at 10 nM (%); for inhibition at 0.5 µM: 500 nM, read-out: Inhibition Rate at 500 nM (%). In short, it runs like this: as §1

Setting [6] is: Table IG2, FAK inhibitor-based, MV-4-11, 10 nM, 96 hours.
The mark [7] stands for this setting: Table IG2, FAK inhibitor-based, MV-4-11, 500 nM, 96 hours.
Where [8] appears, read: Table IG3, FAK inhibitor-based, MDA-MB-231, 10 nM, 96 hours.
Where [9] appears, read: Table IG3, FAK inhibitor-based, MDA-MB-231, 500 nM, 96 hours.

Each structure is given as a SMILES string. Like-named read-outs stand apart in the source and are kept apart here.

For orientation: inhibition means the share of the control response that was lost under treatment.

As to `N#Cc1ccc(O[C@H]2CC[C@H](NC(=O)c3ccc(N4CCC(CN5CCN(c6ccc7c(c6)C(=O)N(N6CCC(=O)NC6=O)C7=O)CC5)CC4)nn3)CC2)cc1Cl` [GT-05225, N-((1r,4r)-4-(3-chloro-4-cyanophenoxy)cyclohexyl)-6-(4-((4-(2-(2,4-dioxotetrahydropyrimidin-1(2H)-yl)-1,3-dioxoisoindolin-5-yl)piperazin-1-yl)methyl)piperidin-1-yl)pyridazine-3-carboxamide], the “Degradation of substrate protein AR (substrate protein remaining %)” value (“Degradation … (substrate protein remaining %)” for short) in assay [1] is recorded as “A (0%≤substrate protein remaining %≤80%)”.
Turning to `CC1(C)[C@H](NC(=O)c2ccc(N3CCC(CN4CCN(c5ccc6c(c5F)C(=O)N(N5CCC(=O)NC5=O)C6=O)CC4)CC3)nc2)C(C)(C)[C@H]1Oc1ccc(C#N)c(Cl)c1` [GT-05828, N-((1r,3r)-3-(3-chloro-4-cyanophenoxy)-2,2,4,4-tetramethylcyclobutyl)-6-(4-((4-(2-(2,4-dioxotetrahydropyrimidin-1(2H)-yl)-4-fluoro-1,3-dioxoisoindolin-5-yl)piperazin-1-yl)methyl)piperidin-1-yl)nicotinamide], the “Degradation … (substrate protein remaining %)” value in assay [1] is on record as “A (0%≤substrate protein remaining %≤80%)”.
Turning to `Cc1ccc(-c2c(C)noc2C)cc1N(CC1CCN(Cc2ccc3c(c2)CN(N2CCC(=O)NC2=O)C3=O)CC1)c1ccc(C2(C#N)CC2)cc1` [GT-06409, 1-(4-((5-(3,5-dimethylisoxazol-4-yl)-2-methylphenyl)((1-((2-(2,4-dioxotetrahydropyrimidin-1(2H)-yl)-1-oxoisoindolin-5-yl)methyl)piperidin-4-yl)methyl)amino)phenyl)cyclopropane-1-carbonitrile], in assay [1], the “Degradation … (substrate protein remaining %)” value is on record as “A (0%≤substrate protein remaining %≤80%)”.
Still for that read-out and setting: then `Cc1ccc(-c2c(C)noc2C)cc1N(CC1CCN(Cc2ccc3c(c2)C(=O)N(N2CCC(=O)NC2=O)C3=O)CC1)c1ccc(C2(C#N)CC2)cc1` [GT-06410, 1-(4-((5-(3,5-dimethylisoxazol-4-yl)-2-methylphenyl)((1-((2-(2,4-dioxotetrahydropyrimidin-1(2H)-yl)-1,3-dioxoisoindolin-5-yl)methyl)piperidin-4-yl)methyl)amino)phenyl)cyclopropane-1-carbonitrile], with “A (0%≤substrate protein remaining %≤80%)”.
Take `NCc1ccc2c(c1)CN(N1CCC(=O)NC1=O)C2=O` [GT-08118, 1-(5-(aminomethyl)-1-oxoisoindolin-2-yl)dihydropyrimidine-2,4(1H, 3H)-dione]: the inhibition at 0.01 µM in assay [2] (MV-4-11 cell, 10 nM) is 40 to 50%; in assay [3] it was 20 to 30%; in assay [4] (MDA-MB-231 cell, 10 nM), 20 to 30%. Besides, the inhibition at 0.5 µM in assay [2] (MV-4-11 cell, 500 nM) fell in the range of 50 to 60%; in assay [3], 20 to 30%; in assay [4] (MDA-MB-231 cell, 500 nM) it was 20 to 30%.
As to `CN(c1cccc(CNc2nc(Nc3ccc(N4CCC(N5CCN(CC6CCN(c7cccc8c7C(=O)N(N7CCC(=O)NC7=O)C8=O)CC6)CC5)CC4)cc3)ncc2C(F)(F)F)c1)S(C)(=O)=O` [GT-08248, N-(3-(((2-((4-(4-(4-((1-(2-(2,4-dioxotetrahydropyrimidin-1(2H)-yl)-1,3-dioxoisoindolin-4-yl)piperidin-4-yl)methyl)piperazin-1-yl)piperidin-1-yl)phenyl)amino)-5-(trifluoromethyl)pyrimidin-4-yl)amino)methyl)phenyl)-N-methylmethanesulfonamide], the inhibition at 0.01 µM in assay [5] lay in the range of 30 to 40%; in assay [2] (setting [6]), 20 to 30%; in assay [4] (setting [8]), 20 to 30%. The inhibition at 0.5 µM in assay [5] was in the range of 60 to 80%; in assay [2] (setting [7]) it was 80 to 100%; in assay [4] (setting [9]), 70 to 80%.
For `Nc1cccc2c1CN(C1CCC(=O)NC1=O)C2=O` (stereo not shown) [Lenalidomide, lenalidomide, reference compound], the inhibition at 0.01 µM in assay [2] (MV-4-11 cell, 10 nM) fell in the range of 20 to 30%; in assay [3], 15 to 20%; in assay [4] (MDA-MB-231 cell, 10 nM), 0 to 5%. In addition, the inhibition at 0.5 µM in assay [2] (MV-4-11 cell, 500 nM) fell in the range of 10 to 15%; in assay [3] it was 0 to 5%; in assay [4] (MDA-MB-231 cell, 500 nM) it was 0 to 5%.
Consider `CNC(=O)c1ccccc1Nc1cc(Nc2ccc(N3CCOCC3)cc2OC)ncc1C(F)(F)F` [PND-1186, reference compound], for which the inhibition at 0.01 µM in assay [5] fell in the range of 5 to 10%; in assay [2] (setting [6]), 5 to 10%; in assay [4] (setting [8]) it was 30 to 40%. Further, the inhibition at 0.5 µM in assay [5] fell in the range of 20 to 30%; in assay [2] (setting [7]) it was 60 to 70%; in assay [4] (setting [9]), 40 to 50%.

(Values after patent US20260364184A1, “COMPOUND BASED ON OXOISOINDOLINYL-SUBSTITUTED TETRAHYDROPYRIMIDINE-DIONE AND USE THEREOF” (GLUETACS THERAPEUTICS (SHANGHAI) CO., LTD., priority 2023, published 2026).)
